Assay results published in ChEMBL document CHEMBL5728597, “Tetrahydroquinoline derivatives as P2X7 receptor antagonists” (2021).

Molecular target: T1, P2X purinoceptor 7 (Homo sapiens, UniProt Q99572)
T1 sequence (Q99572 whole entry): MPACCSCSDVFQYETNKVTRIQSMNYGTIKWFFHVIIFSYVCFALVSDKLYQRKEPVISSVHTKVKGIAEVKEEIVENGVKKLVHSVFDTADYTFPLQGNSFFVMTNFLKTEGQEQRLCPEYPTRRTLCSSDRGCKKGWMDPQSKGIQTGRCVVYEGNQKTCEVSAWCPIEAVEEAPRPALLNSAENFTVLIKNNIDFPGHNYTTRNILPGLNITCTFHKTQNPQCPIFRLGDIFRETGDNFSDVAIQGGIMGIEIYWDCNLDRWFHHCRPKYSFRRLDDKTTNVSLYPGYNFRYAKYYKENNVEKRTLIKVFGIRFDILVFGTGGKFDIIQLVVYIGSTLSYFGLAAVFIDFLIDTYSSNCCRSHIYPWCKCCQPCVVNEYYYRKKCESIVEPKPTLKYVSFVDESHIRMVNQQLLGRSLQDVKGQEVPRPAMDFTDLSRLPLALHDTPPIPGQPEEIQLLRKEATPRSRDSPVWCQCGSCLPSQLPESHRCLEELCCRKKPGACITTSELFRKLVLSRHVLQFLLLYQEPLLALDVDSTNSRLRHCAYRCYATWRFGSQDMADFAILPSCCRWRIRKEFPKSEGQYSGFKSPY
Experiment: Pharmacological Assay: 1. […] Incubate the plate at 37° C. in 5% CO2 for 1 h.4. […] Test compounds were prepared at 100× the test concentration in DMSO by serial dilution with Biomek-FX liquid handling instrument. 33× diluted compound solutions in assay buffer were prepared in intermediate compound plate with Biomek-NX liquid handling instrument. A further 3× dilution occurred in below steps 6 and 7.6. Add 20 microL of 33× diluted compound solutions into each well and leave the plate for 10 min under the dark at room temperature.7. Measure activity by FDSS as follows:Set the assay plate on the stacker of FDSS.Start the detection of fluorescence intensity at 540 nm by 480 nm exicitation.After 30 seconds, add 20 microL of assay buffer containing 240 microM BzATP (final concentration 80 microM).

Row | IC50 [nM] | Compound
1 | < 50 | NC(=O)CC1CCC(C(=O)NCc2cccc(C(F)(F)F)c2Cl)c2cccnc21 (configuration not stated)
2 | < 50 | O=C(NCc1ccc(C(F)(F)F)cc1Cl)[C@]1(F)CC[C@H](O)c2ncccc21
